The results in this text go back to ChEMBL document CHEMBL3879911, “Heteroaryl compounds useful as inhibitors of E1 activating enzymes” (2008).

This assay concerns the target T1, NEDD8 activating enzyme (Homo sapiens, UniProt Q8TBC4).
T1 sequence (Q8TBC4 whole entry): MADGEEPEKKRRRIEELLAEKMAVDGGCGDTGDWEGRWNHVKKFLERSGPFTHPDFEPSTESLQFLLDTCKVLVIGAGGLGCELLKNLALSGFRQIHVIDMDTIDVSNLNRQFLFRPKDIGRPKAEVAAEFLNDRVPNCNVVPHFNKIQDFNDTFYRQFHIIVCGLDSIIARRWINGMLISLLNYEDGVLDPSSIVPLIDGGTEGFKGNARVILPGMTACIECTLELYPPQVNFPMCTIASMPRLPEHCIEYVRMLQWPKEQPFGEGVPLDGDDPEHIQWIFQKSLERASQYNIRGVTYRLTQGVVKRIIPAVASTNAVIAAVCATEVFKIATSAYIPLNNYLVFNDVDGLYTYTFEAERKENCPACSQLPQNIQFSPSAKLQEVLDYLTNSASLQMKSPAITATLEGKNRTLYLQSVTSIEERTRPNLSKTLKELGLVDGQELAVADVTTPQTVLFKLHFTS
T1 sequence (Q13564 whole entry): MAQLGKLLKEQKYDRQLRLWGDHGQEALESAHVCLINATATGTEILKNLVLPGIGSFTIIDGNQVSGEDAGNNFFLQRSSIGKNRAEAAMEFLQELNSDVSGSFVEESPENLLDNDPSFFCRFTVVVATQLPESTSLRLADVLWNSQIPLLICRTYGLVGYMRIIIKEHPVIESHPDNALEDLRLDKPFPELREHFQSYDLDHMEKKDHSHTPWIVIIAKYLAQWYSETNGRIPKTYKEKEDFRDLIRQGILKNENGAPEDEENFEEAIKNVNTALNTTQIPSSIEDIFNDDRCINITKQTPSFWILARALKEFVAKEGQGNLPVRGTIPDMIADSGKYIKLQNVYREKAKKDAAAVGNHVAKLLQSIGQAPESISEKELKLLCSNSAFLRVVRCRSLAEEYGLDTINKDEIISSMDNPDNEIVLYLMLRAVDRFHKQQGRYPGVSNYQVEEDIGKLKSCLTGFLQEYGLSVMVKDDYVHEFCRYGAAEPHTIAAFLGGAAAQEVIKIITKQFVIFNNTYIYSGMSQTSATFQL
The assay can be described thus: Inhibition of recombinant human NAEalpha/N-terminal His-tagged NAEbeta expressed in baculovirus infected insect Sf9 cells using N-terminal FLAG tagged Nedd8 as substrate incubated for 105 mins in presence of N-terminal GST-tagged Ubc12 by FRET assay.
`NS(=O)(=O)OC[C@H]1C[C@@H](Nc2cc(N[C@H]3CCc4c(F)ccc(F)c43)ncn2)[C@H](O)[C@@H]1O`: the IC50 is no more than 500 nM.

Regarding `NS(=O)(=O)OC[C@H]1C[C@@H](Nc2cc(N[C@H]3CCc4cc(Cl)ccc43)ncn2)[C@H](O)[C@@H]1O`, the half-inhibitory concentration (IC50) was no more than 500 nM. In the case of `NS(=O)(=O)OC[C@H]1C[C@@H](O)[C@H](Nc2cc(N[C@H]3CCc4ccccc43)ncn2)C1` it was greater than 10000 nM.

With `NS(=O)(=O)OC[C@H]1C[C@@H](NC(=O)c2ccncc2)[C@H](O)[C@@H]1O`, the IC50 lay in the range of 500 to 10000 nM. In the case of `NS(=O)(=O)OC[C@@H]1C[C@@H](Nc2c(Cl)cnc3[nH]c(-c4cccc5ccccc45)nc23)C[C@@H]1O` it was no more than 500 nM; in that of `NS(=O)(=O)OC[C@H]1C[C@@H](Nc2cc(N[C@H]3CCc4ccccc43)ncn2)[C@H](O)[C@@H]1O`, no more than 500 nM; in that of `CC1(C)C[C@H](Nc2cc(N[C@@H]3C[C@@H](COS(N)(=O)=O)[C@@H](O)C3)ncn2)c2ccccc21`, no more than 500 nM.

With `CN(Cc1ccccc1)c1cc(N[C@@H]2C[C@H](COS(N)(=O)=O)[C@@H](O)[C@H]2O)ncn1`, the IC50 was greater than 10000 nM. Regarding `Cn1c(-c2ccccc2)nc2ncnc(N[C@@H]3C[C@@H](COS(N)(=O)=O)[C@@H](O)C3)c21`, the IC50 lay in the range of 500 to 10000 nM. As for `CN(C)c1ccc(-c2nc3c(N[C@@H]4C[C@@H](COS(N)(=O)=O)[C@@H](O)C4)ncnc3[nH]2)c2ccccc12`, the concentration for half-maximal inhibition (IC50) was no more than 500 nM. For `NS(=O)(=O)OC[C@H]1C[C@@H](NC(=O)c2ccccn2)[C@H](O)[C@@H]1O`, the IC50 is greater than 10000 nM. As to `Cc1nc(N[C@H]2CCc3ccccc32)cc(N[C@@H]2C[C@H](COS(N)(=O)=O)[C@@H](O)[C@H]2O)n1`, the IC50 is no more than 500 nM. In the case of `CO[C@H]1Cc2ccccc2[C@H]1Nc1cc(N[C@@H]2C[C@H](COS(N)(=O)=O)[C@@H](O)[C@H]2O)ncn1`, the IC50 was no more than 500 nM. Consider `NS(=O)(=O)OC[C@@H]1C[C@@H](Nc2ncnc3[nH]c(-c4cccc5c4OCCO5)nc23)C[C@@H]1O`, for which the IC50 was no more than 500 nM. With `NS(=O)(=O)OC[C@H]1C[C@@H](Nc2ncnc3[nH]cnc23)[C@H](O)[C@@H]1O` the figure was no more than 500 nM. In the case of `CC1(C)C[C@H](Nc2cc(O[C@@H]3C[C@@H](COS(N)(=O)=O)[C@@H](O)C3)ccn2)c2ccc(Cl)cc21`, the IC50 lay within 500 to 10000 nM. Regarding `NS(=O)(=O)OC[C@H]1C[C@@H](Nc2cc(N[C@H]3CCc4c(Cl)cccc43)ncn2)[C@H](O)[C@@H]1O`, the IC50 is no more than 500 nM.

On to `CN(c1ncnc2[nH]c(-c3cccc4ccccc34)nc12)[C@@H]1C[C@@H](COS(N)(=O)=O)[C@@H](O)C1`, for which the concentration for half-maximal inhibition (IC50) is no more than 500 nM.

As to `NS(=O)(=O)OC[C@@H]1C[C@@H](Nc2ncnc3[nH]c(-c4ccccc4Cl)nc23)C[C@@H]1O`, the IC50 was no more than 500 nM. In the case of `NS(=O)(=O)OC[C@H]1C[C@@H](Nc2cc(N[C@H]3CCc4ccccc43)ncn2)C[C@@H]1O`, the IC50 was no more than 500 nM.

As to `CC1(C)C[C@H](Nc2cc(N[C@@H]3C[C@H](COS(N)(=O)=O)[C@@H](O)[C@H]3O)ncn2)c2ccccc21`, the IC50 is no more than 500 nM. In the case of `CN(Cc1ccccc1)c1nccc(N[C@@H]2C[C@H](COS(N)(=O)=O)[C@@H](O)[C@H]2O)n1` it was greater than 10000 nM. Take `NS(=O)(=O)OC[C@@H]1C[C@@H](Oc2cc(N[C@H]3CCCc4ccccc43)ncn2)C[C@@H]1O`: the IC50 was no more than 500 nM. Consider `CO[C@H]1Cc2ccccc2[C@H]1Nc1cc(N[C@@H]2C[C@@H](COS(N)(=O)=O)[C@@H](O)C2)ncn1`, for which the IC50 was no more than 500 nM. In the case of `NS(=O)(=O)OC[C@@H]1C[C@@H](Nc2cc(N[C@H]3CCc4ccccc43)nc(=O)[nH]2)C[C@@H]1O`, the IC50 was 500 to 10000 nM. Consider `Cc1nc(NCc2ccccc2)cc(N[C@@H]2C[C@H](COS(N)(=O)=O)[C@@H](O)[C@H]2O)n1`, for which the IC50 is greater than 10000 nM. On to `NS(=O)(=O)OC[C@H]1C[C@@H](Nc2ccnc(NCC3CCCCC3)n2)[C@H](O)[C@@H]1O`, for which the IC50 fell in the range of 500 to 10000 nM. In the case of `NS(=O)(=O)OC[C@H]1C[C@@H](Nc2cc(N[C@H]3CCc4cc(F)c(F)cc43)ncn2)[C@H](O)[C@@H]1O`, the IC50 was no more than 500 nM.

For the compound `Cc1c(N[C@H]2CCc3ccccc32)ncnc1O[C@@H]1C[C@@H](COS(N)(=O)=O)[C@@H](O)C1`, the IC50 is greater than 10000 nM. Consider `CC1CC(Nc2nccc(N[C@@H]3C[C@H](COS(N)(=O)=O)[C@@H](O)[C@H]3O)n2)c2ccccc21` (stereo not given in full), for which the IC50 is no more than 500 nM. `NS(=O)(=O)OC[C@@H]1C[C@@H](Nc2ncnc3[nH]c(-c4ccccc4OC(F)(F)F)nc23)C[C@@H]1O`: the concentration for half-maximal inhibition (IC50) was no more than 500 nM. Take `NS(=O)(=O)OC[C@H]1C[C@@H](NC(=O)c2cccnc2)[C@H](O)[C@@H]1O`: the IC50 lay in the range of 500 to 10000 nM. As to `CC1(C)C[C@H](Nc2nccc(N[C@@H]3C[C@H](COS(N)(=O)=O)[C@@H](O)[C@H]3O)n2)c2ccccc21`, the IC50 was no more than 500 nM.

As for `NS(=O)(=O)OC[C@H]1C[C@@H](Nc2cc(NCC3CCCCC3)ncn2)[C@H](O)[C@@H]1O`, the IC50 is no more than 500 nM. For the compound `NS(=O)(=O)OC[C@@H]1C[C@@H](Oc2cc(NCc3cccc4ccccc34)ncn2)C[C@@H]1O`, the 50% inhibitory concentration (IC50) is no more than 500 nM. With `NS(=O)(=O)OC[C@@H]1C[C@@H](Oc2cc(N3CCc4ccccc4C3)ncn2)C[C@@H]1O`, the IC50 was greater than 10000 nM. With `NS(=O)(=O)OC[C@H]1C[C@@H](Nc2ncnc3[nH]c(-c4ccccc4)nc23)[C@H](O)[C@@H]1O` the figure was no more than 500 nM. Turning to `NS(=O)(=O)OC[C@H]1C[C@@H](Nc2ncnc(N[C@@H]3CCc4ccccc43)n2)[C@H](O)[C@@H]1O`, the IC50 was no more than 500 nM.

For the compound `CO[C@H]1Cc2ccccc2[C@H]1Nc1ncnc(N[C@@H]2C[C@H](COS(N)(=O)=O)[C@@H](O)[C@H]2O)n1`, the IC50 is no more than 500 nM. As to `C[C@H]1Cc2ccccc2[C@H]1Nc1cc(O[C@@H]2C[C@@H](COS(N)(=O)=O)[C@@H](O)C2)ncn1`, the IC50 is no more than 500 nM. With `NS(=O)(=O)OC[C@H]1C[C@@H](Nc2cc(N[C@@H]3CCc4ccccc43)ncn2)[C@H](O)[C@@H]1O` the figure was no more than 500 nM. For `NS(=O)(=O)OC[C@@H]1C[C@@H](Nc2ncnc3[nH]c(-c4cccc5ccccc45)nc23)C[C@@H]1O`, the half-maximal inhibitory concentration (IC50) was no more than 500 nM.

With `Cc1nc(N)cc(N[C@@H]2C[C@H](COS(N)(=O)=O)[C@@H](O)[C@H]2O)n1`, the IC50 was greater than 10000 nM. `NS(=O)(=O)OC[C@@H]1C[C@@H](Nc2cc(N[C@H]3CCc4ccccc43)ncn2)C[C@@H]1O`: the IC50 was no more than 500 nM. Take `CN(C)C[C@H]1Cc2ccccc2[C@H]1Nc1cc(O[C@@H]2C[C@@H](COS(N)(=O)=O)[C@@H](O)C2)ncn1`: the IC50 was 500 to 10000 nM. With `NS(=O)(=O)OC[C@H]1C[C@@H](Nc2cc(N[C@H]3CCCc4ccccc43)ncn2)[C@H](O)[C@@H]1O` the figure was no more than 500 nM; with `NS(=O)(=O)OC[C@H]1C[C@@H](Nc2cc(NCc3ccccc3)ncn2)[C@H](O)[C@@H]1O`, no more than 500 nM; with `NS(=O)(=O)OC[C@@H]1C[C@@H](Nc2ncnc3[nH]c(-c4ccccc4Oc4ccccc4)nc23)C[C@@H]1O`, no more than 500 nM. In the case of `CN(C)C(=O)[C@H]1Cc2ccccc2[C@H]1Nc1cc(O[C@@H]2C[C@@H](COS(N)(=O)=O)[C@@H](O)C2)ncn1` it was 500 to 10000 nM; in that of `Cc1nc(N[C@H]2CCc3ccccc32)nc(N[C@@H]2C[C@H](COS(N)(=O)=O)[C@@H](O)[C@H]2O)n1`, no more than 500 nM; in that of `NS(=O)(=O)OC[C@@H]1C[C@@H](Nc2cc(N[C@H]3CCc4ccccc43)ncn2)[C@H](O)[C@@H]1O`, no more than 500 nM.

Consider `NS(=O)(=O)OC[C@@H]1C[C@@H](Nc2ncnc3[nH]c(-c4ccccc4-c4ccccc4)nc23)C[C@@H]1O`, for which the IC50 fell in the range of 500 to 10000 nM. In the case of `NS(=O)(=O)OC[C@@H]1C[C@@H](Nc2ncnc3[nH]c(-c4cccc5c4oc4ccccc45)nc23)C[C@@H]1O` it was no more than 500 nM; in that of `NS(=O)(=O)OC[C@@H]1C[C@@H](Nc2ncnc3[nH]c(-c4ccccc4)cc23)C[C@@H]1O`, no more than 500 nM.

As for `NS(=O)(=O)OC[C@@H]1C[C@@H](Cc2cc(N[C@H]3CCc4ccccc43)ncn2)C[C@@H]1O`, the IC50 was in the range of 500 to 10000 nM.

As for `NS(=O)(=O)OC[C@H]1C[C@@H](Nc2cc(N[C@H]3CCc4c(F)cccc43)ncn2)[C@H](O)[C@@H]1O`, the IC50 is no more than 500 nM. Take `NS(=O)(=O)OC[C@@H]1C[C@@H](Nc2ncnc3[nH]c(-c4cccc(Cl)c4)nc23)C[C@@H]1O`: the IC50 was no more than 500 nM. For the compound `NS(=O)(=O)OC[C@H]1C[C@@H](Nc2ccnc(NCc3ccccc3)n2)[C@H](O)[C@@H]1O`, the IC50 was 500 to 10000 nM. In the case of `NS(=O)(=O)OC[C@@H]1C[C@@H](Oc2ncnc3[nH]c(-c4ccccc4)nc23)C[C@@H]1O` it was no more than 500 nM; in that of `NS(=O)(=O)OC[C@@H]1C[C@@H](Oc2cc(N[C@H]3CCc4ccccc43)ncn2)C[C@@H]1O`, no more than 500 nM.
